Laboratory results reported in ChEMBL document CHEMBL4049384, “Synthesis and evaluation of an injectable everolimus prodrug” (Bioorg Med Chem Lett, 2017).
Converted amounts (≈) assume the structure as drawn.

Assays:
[1] = system: Mus musculus; assay: Toxicity in nude mouse xenografted with human OS-RC-2 cells assessed as body weight loss at 6 mg/kg administered three times a week through oral gavage measured after 32 days (reference value: 33%); type: organism-based; details: in vivo, 768 h
[2] = Solubility of the compound in water; type: physicochemical
[3] = system: HepG2; assay: Antiproliferative activity against human HepG2 cells after 48 hrs by MTT assay; type: functional, cell-based; details: HepG2, 48 h
[4] = system: NCI-H460; assay: Antiproliferative activity against human NCI-H460 cells after 48 hrs by MTT assay; type: functional, cell-based; details: NCI-H460, 48 h
[5] = system: DU-145; assay: Antiproliferative activity against human DU145 cells after 48 hrs by MTT assay; type: functional, cell-based; details: DU-145, 48 h
[6] = system: PC-3; assay: Antiproliferative activity against human PC3 cells after 48 hrs by MTT assay; type: functional, cell-based; details: PC-3, 48 h
[7] = system: MDA-MB-435; assay: Antiproliferative activity against human MDA-MB-435 cells after 48 hrs by MTT assay; type: functional, cell-based; details: MDA-MB-435, 48 h
[8] = system: OS-RC-2; assay: Antitumor activity against human OS-RC2 cells xenografted in nude mouse assessed as tumor weight at 6 mg/kg administered three times a week through oral gavage measured after 32 days (reference value: 0.68 +/- 0.06 g); type: functional
[9] = system: OS-RC-2; assay: Antitumor activity against human OS-RC2 cells xenografted in nude mouse assessed as tumor growth inhibition at 6 mg/kg administered three times a week through oral gavage measured after 32 days relative to control; type: functional; details: OS-RC-2, po, 768 h, read-out: TGI
[10] = AUC (0 to infinity) in Sprague-Dawley rat at 10 mg/kg, po; type: ADME, organism-based; parameters: dose 10 mg/kg, route oral, time infinity; details: in vivo
[11] = AUC (0 to t) in Sprague-Dawley rat at 10 mg/kg, po; type: ADME, organism-based; details: in vivo
[12] = Cmax in Sprague-Dawley rat at 10 mg/kg, po; type: ADME, organism-based; parameters: dose 10 mg/kg, route oral; details: in vivo
[13] = Tmax in Sprague-Dawley rat at 10 mg/kg, po; type: ADME, organism-based; details: in vivo
[14] = Half life in Sprague-Dawley rat at 10 mg/kg, po; type: ADME, organism-based; details: in vivo
[15] = Drug uptake in Sprague-Dawley rat blood at 10 mg/kg, po after 0.25 hrs by HPLC method; type: ADME, organism-based; details: read-out: Drug uptake
[16] = Drug uptake in Sprague-Dawley rat blood at 10 mg/kg, po after 0.5 hrs by HPLC method; type: ADME, organism-based; details: read-out: Drug uptake
[17] = Drug uptake in Sprague-Dawley rat blood at 10 mg/kg, po after 1 hr by HPLC method; type: ADME, organism-based; details: read-out: Drug uptake
[18] = Drug uptake in Sprague-Dawley rat blood at 10 mg/kg, po after 1.5 hrs by HPLC method; type: ADME, organism-based; details: read-out: Drug uptake
[19] = Drug uptake in Sprague-Dawley rat blood at 10 mg/kg, po after 2 hrs by HPLC method; type: ADME, organism-based; details: read-out: Drug uptake
[20] = Drug uptake in Sprague-Dawley rat blood at 10 mg/kg, po after 3 hrs by HPLC method; type: ADME, organism-based; details: read-out: Drug uptake
[21] = Drug uptake in Sprague-Dawley rat blood at 10 mg/kg, po after 4 hrs by HPLC method; type: ADME, organism-based; details: read-out: Drug uptake
[22] = Drug uptake in Sprague-Dawley rat blood at 10 mg/kg, po after 6 hrs by HPLC method; type: ADME, organism-based; details: read-out: Drug uptake
[23] = Drug uptake in Sprague-Dawley rat blood at 10 mg/kg, po after 8 hrs by HPLC method; type: ADME, organism-based; details: read-out: Drug uptake
[24] = Drug uptake in Sprague-Dawley rat blood at 10 mg/kg, po after 24 hrs by HPLC method; type: ADME, organism-based; details: read-out: Drug uptake
[25] = system: OS-RC-2; assay: Antitumor activity against human OS-RC2 cells xenografted in nude mouse assessed as tumor volume at 6 mg/kg administered three times a week through oral gavage measured on day 1 (reference value: 167.51 +/- 17.09 mm3); type: functional
[26] = system: OS-RC-2; assay: Antitumor activity against human OS-RC2 cells xenografted in nude mouse assessed as reduction in tumor volume at 6 mg/kg administered three times a week through oral gavage measured on day 5 relative to control; type: functional
[27] = system: OS-RC-2; assay: Antitumor activity against human OS-RC2 cells xenografted in nude mouse assessed as reduction in tumor volume at 6 mg/kg administered three times a week through oral gavage measured on day 8 relative to control; type: functional
[28] = system: OS-RC-2; assay: Antitumor activity against human OS-RC2 cells xenografted in nude mouse assessed as reduction in tumor volume at 6 mg/kg administered three times a week through oral gavage measured on day 12 relative to control; type: functional
[29] = system: OS-RC-2; assay: Antitumor activity against human OS-RC2 cells xenografted in nude mouse assessed as reduction in tumor volume at 6 mg/kg administered three times a week through oral gavage measured on day 15 relative to control; type: functional
[30] = system: OS-RC-2; assay: Antitumor activity against human OS-RC2 cells xenografted in nude mouse assessed as reduction in tumor volume at 6 mg/kg administered three times a week through oral gavage measured on day 19 relative to control; type: functional
[31] = system: OS-RC-2; assay: Antitumor activity against human OS-RC2 cells xenografted in nude mouse assessed as reduction in tumor volume at 6 mg/kg administered three times a week through oral gavage measured on day 22 relative to control; type: functional
[32] = system: OS-RC-2; assay: Antitumor activity against human OS-RC2 cells xenografted in nude mouse assessed as reduction in tumor volume at 6 mg/kg administered three times a week through oral gavage measured on day 26 relative to control; type: functional
[33] = system: OS-RC-2; assay: Antitumor activity against human OS-RC2 cells xenografted in nude mouse assessed as reduction in tumor volume at 6 mg/kg administered three times a week through oral gavage measured on day 29 relative to control; type: functional
[34] = system: OS-RC-2; assay: Antitumor activity against human OS-RC2 cells xenografted in nude mouse assessed as reduction in tumor volume at 6 mg/kg administered three times a week through oral gavage measured on day 32 relative to control; type: functional
[35] = system: Mus musculus; assay: Toxicity in nude mouse xenografted with human OS-RC-2 cells assessed as body weight loss at 6 mg/kg administered three times a week through oral gavage measured on day 5 (reference value: 1.9%); type: organism-based; details: in vivo
[36] = system: Mus musculus; assay: Toxicity in nude mouse xenografted with human OS-RC2 cells assessed as body weight loss at 6 mg/kg administered three times a week through oral gavage and measured on Day 8 (reference value: 8.5 %); type: organism-based; details: in vivo
[37] = system: Mus musculus; assay: Toxicity in nude mouse xenografted with human OS-RC2 cells assessed as body weight loss at 6 mg/kg administered three times a week through oral gavage and measured on Day 12 (reference value: 15 %); type: organism-based; details: in vivo
[38] = system: Mus musculus; assay: Toxicity in nude mouse xenografted with human OS-RC2 cells assessed as body weight loss at 6 mg/kg administered three times a week through oral gavage and measured on day 15 (reference value: 20.2 %); type: organism-based; details: in vivo
[39] = system: Mus musculus; assay: Toxicity in nude mouse xenografted with human OS-RC2 cells assessed as body weight loss at 6 mg/kg administered three times a week through oral gavage and measured on Day 19 (reference value: 23.1 %); type: organism-based; details: in vivo
[40] = system: Mus musculus; assay: Toxicity in nude mouse xenografted with human OS-RC2 cells assessed as body weight loss at 6 mg/kg administered three times a week through oral gavage and measured on Day 22 (reference value: 23.1 %); type: organism-based; details: in vivo
[41] = system: Mus musculus; assay: Toxicity in nude mouse xenografted with human OS-RC2 cells assessed as body weight loss at 6 mg/kg administered three times a week through oral gavage and measured on Day 26 (reference value: 28.2 %); type: organism-based; details: in vivo
[42] = system: Mus musculus; assay: Toxicity in nude mouse xenografted with human OS-RC2 cells assessed as body weight loss at 6 mg/kg administered three times a week through oral gavage and measured on Day 29 (reference value: 31.2 %); type: organism-based; details: in vivo
[43] = system: Mus musculus; assay: Toxicity in nude mouse xenografted with human OS-RC-2 cells assessed as death at 6 mg/kg administered three times a week through oral gavage after 32 days; type: organism-based; details: in vivo, 768 h
[44] = system: Mus musculus; assay: Toxicity in nude mouse xenografted with human OS-RC-2 cells assessed as body weight at 6 mg/kg administered three times a week through oral gavage measured on day 1 (reference value: 20.4 +/- 0.33 g); type: organism-based; details: in vivo

`CO[C@H]1C[C@@H]2CC[C@@H](C)[C@@](O)(O2)C(=O)C(=O)N2CCCC[C@H]2C(=O)O[C@H]([C@H](C)C[C@@H]2CC[C@@H](OCCO)[C@H](OC)C2)CC(=O)[C@H](C)/C=C(\C)[C@@H](O)[C@@H](OC)C(=O)[C@H](C)C[C@H](C)\C=C/C=C/C=C/1C` showed an Activity [1] of 11.7%, a solubility [2] of 1 µg/mL (≈ 1.04 µM) and an IC50 [3] of 52.3 µM. It also gave an IC50 [4] of 99.8 µM, an IC50 [5] of 57.3 µM and an IC50 [6] of 30.2 µM. For the same compound, the IC50 [7] was 62.5 µM, the Activity [8] was 0.4 g and the inhibition in vivo at 6 mg/kg [9] was 41.1%. The AUC(0-inf) [10] was 454 ng·h/mL, the AUC(0-t) [11] was 454 ng·h/mL and the Cmax [12] was 126 ng/mL. The Tmax [13] was 1.91 h, the half-life [14] was 2.2 h and the concentration at 0.25 h [15] was 17.4 ng/mL. It also gave a concentration at 0.5 h [16] of 100 ng/mL, a concentration at 1 h [17] of 99.2 ng/mL and a concentration at 1.5 h [18] of 90.4 ng/mL. For the same compound, the concentration at 2 h [19] was 69.7 ng/mL, the concentration at 3 h [20] was 64.3 ng/mL and the concentration at 4 h [21] was 61.4 ng/mL. For the same compound, the concentration at 6 h [22] was 32.4 ng/mL, the concentration at 8 h [23] was 16.3 ng/mL and the concentration at 24 h [24] was 2.28 ng/mL. The Activity [25] was 167.38 mm3, the T/C [26] was 79% and the T/C [27] was 76%. It also gave a T/C [28] of 0.72%, a T/C [29] of 0.66% and a T/C [30] of 0.71%. For the same compound, the T/C [31] was 0.69%, the T/C [32] was 0.71% and the T/C [33] was 0.72%. The T/C [34] was 0.77%, the Activity [35] was 2.7% and the Activity [36] was 3.1%. For the same compound, the Activity [37] was 8.2%, the Activity [38] was 8.7% and the Activity [39] was 9.7%. For the same compound, the Activity [40] was 9.7%, the Activity [41] was 9.1% and the Activity [42] was 10.5%. The Activity [43] was “Non-Toxic” and the Activity [44] was 20.94 g.
